biological target: purified human Factor XIa (Homo sapiens (Human), UniProt P03951); experiment: Factor XIa Assay; type: biochemical; details: purified human Factor XIa 40 pM; substrate Z-Gly-Pro-Arg-AFC 100 μM; 50 mM HEPES pH 7.4; read-out: hFXIa Ki
Sequence (P03951 388-625): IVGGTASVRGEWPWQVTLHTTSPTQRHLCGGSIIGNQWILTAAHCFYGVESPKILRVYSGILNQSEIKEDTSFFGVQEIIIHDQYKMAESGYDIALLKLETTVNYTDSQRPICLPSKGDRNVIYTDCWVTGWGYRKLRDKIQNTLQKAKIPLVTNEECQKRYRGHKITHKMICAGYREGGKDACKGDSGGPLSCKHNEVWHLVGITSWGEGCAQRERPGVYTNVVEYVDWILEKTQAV
Sequence (P03951 19-387 partner): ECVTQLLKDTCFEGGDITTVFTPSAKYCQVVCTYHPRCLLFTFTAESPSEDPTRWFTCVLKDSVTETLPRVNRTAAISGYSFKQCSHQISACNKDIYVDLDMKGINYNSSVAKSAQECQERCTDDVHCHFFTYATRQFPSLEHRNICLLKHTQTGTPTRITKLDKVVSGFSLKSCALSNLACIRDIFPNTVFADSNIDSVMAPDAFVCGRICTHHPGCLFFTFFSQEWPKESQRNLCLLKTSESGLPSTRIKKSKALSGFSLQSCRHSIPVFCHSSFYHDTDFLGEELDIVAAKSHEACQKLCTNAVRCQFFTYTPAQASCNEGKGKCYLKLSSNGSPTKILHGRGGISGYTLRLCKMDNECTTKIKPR

SMILES	Ki [nM]
CCOC(=O)Nc1ccc(NC(=O)C(Cc2ccccc2)n2ccc(-c3cc(Cl)ccc3[N+](=O)[O-])cc2=O)cc1 (centres unmarked) [Example 1Ag, ethyl (4-(2-(4-(5-chloro-2-nitrophenyl)-2-oxopyridin-1(2H)-yl)-3-phenylpropanamido)phenyl)carbamate]	400
COC(=O)Nc1ccc(CNC(=O)C(Cc2ccccc2)n2ccc(-c3cc(Cl)ccc3[N+](=O)[O-])cc2=O)cc1 (centres unmarked) [Example 1Al, methyl (4-((2-(4-(5-chloro-2-nitrophenyl)-2-oxopyridin-1(2H)-yl)-3-phenylpropanamido)methyl)phenyl)carbamate]	340
O=C(C(Cc1ccccc1)n1ccc(-c2cc(Cl)ccc2[N+](=O)[O-])cc1=O)N1CCC(N2CC[C@@H](O)C2)CC1 (stereo partly drawn) [Example 1Aw, 4-(5-chloro-2-nitrophenyl)-1-(1-(4-((R)-3-hydroxypyrrolidin-1-yl)piperidin-1-yl)-1-oxo-3-phenylpropan-2-yl)pyridin-2(1H)-one]	> 10000
O=C(O)c1ccc(NC(=O)[C@H](Cc2ccc(F)cc2)n2ccc(-c3cc(Cl)ccc3-n3cnnn3)cc2=O)cc1 [Example 1Ea, (S)-4-(2-(4-(5-chloro-2-(1H-tetrazol-1-yl)phenyl)-2-oxopyridin-1(2H)-yl)-3-(4-fluorophenyl)propanamido)benzoic acid]	6
O=C(O)c1ccc(NC(=O)[C@H](Cc2ccccc2)n2ccc(-c3cc(Cl)ccc3-n3cnnn3)cc2=O)cc1 [Example 1Ef, (S)-4-(2-(4-(5-chloro-2-(1H-tetrazol-1-yl)phenyl)-2-oxopyridin-1(2H)-yl)-3-phenylpropanamido)benzoic acid]	< 5
O=C(O)c1ccc(NC(=O)[C@@H](Cc2ccccc2)n2ccc(-c3cc(Cl)ccc3-n3cnnn3)cc2=O)cc1 [Example 1Ff, (R)-4-(2-(4-(5-chloro-2-(1H-tetrazol-1-yl)phenyl)-2-oxopyridin-1(2H)-yl)-3-phenylpropanamido)benzoic acid]	6
O=C(O)c1ccc(NC(=O)C(Cc2ccccc2)n2ccc(-c3cnccc3Cl)cc2=O)cc1 (centres unmarked) [Example 2Af, 4-(2-(4-chloro-2′-oxo-[3,4′-bipyridin]-1′(2′H)-yl)-3-phenylpropanamido)benzoic acid]	7750
N=C(N)c1ccc(-c2ccn(C(Cc3ccccc3)C(=O)Nc3ccc(C(=O)O)cc3)c(=O)c2)cc1 (centres unmarked) [Example 2d, 4-(2-(4-(4-carbamimidoylphenyl)-2-oxopyridin-1(2H)-yl)-3-phenylpropanamido)benzoic acid]	370
O=C(O)c1ccc2[nH]c([C@H](Cc3ccc(F)cc3)n3ccc(-c4cc(Cl)ccc4-n4cnnn4)cc3=O)nc2c1 [Example 3Bd, (S)-2-(1-(4-(5-chloro-2-(1H-tetrazol-1-yl)phenyl)-2-oxopyridin-1(2H)-yl)-2-(4-fluorophenyl)ethyl)-1H-benzo[d]imidazole-5-carboxylic acid]	< 5
O=C(O)c1ccc2[nH]c([C@H](Cc3ccccc3)n3ccc(-c4cc(Cl)ccc4-n4cnnn4)cc3=O)nc2c1 [Example 3g, (S)-2-(1-(4-(5-chloro-2-(1H-tetrazol-1-yl)phenyl)-2-oxopyridin-1(2H)-yl)-2-phenylethyl)-1H-benzo[d]imidazole-5-carboxylic acid]	< 5

The remaining lines, values ahead:

Ki [nM]	SMILES
< 5	O=c1cc(-c2cc(Cl)ccc2-n2cnnn2)ccn1C(Cc1ccccc1)c1nc(-c2cccnc2)c[nH]1 (centres unmarked) [Example 4Aa, 4-(5-chloro-2-(1H-tetrazol-1-yl)phenyl)-1-(2-phenyl-1-(4-(pyridin-3-yl)-1H-imidazol-2-yl)ethyl)pyridin-2(1H)-one]
154	O=c1cc(-c2cc(Cl)ccc2-n2cnnn2)ccn1C(Cc1ccc(F)cc1)c1nc(-c2ccc(F)cc2)c[nH]1 (centres unmarked) [Example 4Af, 4-(5-chloro-2-(1H-tetrazol-1-yl)phenyl)-1-(2-(4-fluorophenyl)-1-(4-(4-fluorophenyl)-1H-imidazol-2-yl)ethyl)pyridin-2(1H)-one]
< 5	N#Cc1ccc(-c2cnc([C@@H](Cc3ccc(F)cc3)n3ccc(-c4cc(Cl)ccc4-n4cnnn4)cc3=O)[nH]2)cc1 [Example 4Cl, (R)-4-(2-(1-(4-(5-chloro-2-(1H-tetrazol-1-yl)phenyl)-2-oxopyridin-1(2H)-yl)-2-(4-fluorophenyl)ethyl)-1H-imidazol-5-yl)benzonitrile]
< 5	O=c1cc(-c2cc(Cl)ccc2-n2cnnn2)ccn1[C@@H](Cc1ccc(F)cc1)c1nc2cc(P(=O)(O)O)ccc2[nH]1 [Example 5b, (S)-(2-(1-(4-(5-chloro-2-(1H-tetrazol-1-yl)phenyl)-2-oxopyridin-1(2H)-yl)-2-(4-fluorophenyl)ethyl)-1H-benzo[d]imidazol-5-yl)phosphonic acid]
